Measurements from patent US20160002240A1, “NUCLEOSIDE ANALOG SALTS WITH IMPROVED SOLUBILITY AND METHODS OF FORMING SAME” (THE BOARD OF TRUSTEES OF THE UNIVERSITY OF ALABAMA, priority 2013, published 2016).
Values joined by “and” are separate entries in the source; they are usually repeats but may differ in a detail not shown here. Identical values can stand only once. Like-named read-outs stand apart in the source and are kept apart here. Marks after values point to notes of the source that are not given here.

Tests used:
[1] = at 25° C.; cited from earlier work
[2] = Thermogravimetric analysis (thermal stability); type: physicochemical; conditions: for T5%onset: Table 4, onset temperature of initial 5 wt % mass loss, nitrogen, 5° C./min
Description: TGA experiments were performed on a Mettler Toledo TGA/DSC1 Star unit under a stream of nitrogen. Samples (5-20 mg) were placed on a platinum pan and were heated from 25° C. to 800° C. with a constant heating rate of 5° C./min and with a 30 min isotherm at 75° C. to remove any remaining volatiles. Decomposition temperatures (T5% onset) were reported as the onset temperature with respect to the initial 5 wt % mass loss.

[3] = cited from earlier work
[4] = Solubility in simulated biological fluids (PBS, SIF, SGF); conditions: for Solubility in PBS (pH = 7.4): phosphate buffer saline pH 7.4
Description: For all solvents used (water, Phosphate Buffer Solution (PBS), Simulated Gastric Fluid (SGF), Simulated Intestinal Fluid (SIF)) same amount of compound/solvent was used: 0.1 g compound/0.5 mL solvent. The solutions were stirred at room temperature for 24 h. The resulting suspensions were filtered through a 0.2 μm Teflon syringe filter to obtain clear solutions. […] Deuterated dmso (dmso-d6) containing 0.05% (v/v) TMS (as internal standard) was used to run the ^1H-NMR. 0.1 mL of the filtered solutions were combined with 0.4 mL dmso-d6 w/ 0.05% (v/v) TMS (corresponding to 1.836×10-6 mols TMS). The solubility values were determined from the molar ratio between the peaks corresponding to the compound and TMS.
Solubility experiments were conducted as described in example 12.

[5] = Solubility in deionized water, UV absorbance at 254 nm with calibration curve
Description: The UV-VIS spectra used for development of calibration curves and for determination of the solubility values were performed on a Varian CARY 3 UV-Visible Spectrophotometer.
After filtering through Teflon syringe filters 0.2 μm), UV was used to determine the absorbance at 254 nm. A calibration curve of the compound in water was used to determine the concentration.
In a vial, 5.500 g [Cho][Acy] was mixed with 2 mL DI H2O.
(§1) A calibration curve of the compound in water was used to determine the concentration.
In a vial, 0.500 g [N1,1,1,16][Acy] was suspended in 1 mL DI H2O. The mixture was stirred for 24 h at room temperature. […] After filtering through a Teflon syringe filter (0.2 μm), 0.1 mL solution was diluted to 25 mL with DI H2O and its absorbance at 254 nm was determined.
as §1
In a vial, 4.8 g [P4,4,4,4][Acy] was suspended in 2 mL DI H2O. The mixture was stirred for 24 h at room temperature.
In a vial, 0.150 g [Acy]HCl was suspended in 1 mL DI H2O. The mixture was stirred for 24 h at room temperature. […] After filtering, 0.1 mL solution was diluted to 25 mL with DI H2O and its absorbance was determined.
In a vial, 0.2 g [Acy][Doc] was suspended in 1.5 mL DI H2O. […] To about 0.3 mL of this emulsion, water was added dropwise (mixing well each time after water was added) until a more clear mixture was obtained. […] The mixture was sonicated for about 30 min; this process (add water, sonication) was repeated until a clear solution was obtained. 0.5 mL of the clear solution obtained was diluted to 50 mL with DI H2O and UV was used to determine the absorbance at 254 nm.
as §1

[6] = quantitative NMR, room temperature, 24 h
[7] = simulated intestinal fluid pH 6.8 without pancreatin, quantitative NMR

Compound | T5%onset [2] [°C] | Water solubility [5] [mg/mL] | Water solubility mg/mL (g/L) [5] | Water solubility mol/L [5] | further results
Nc1nc2c(ncn2COCCO)c(=O)[nH]1 [Acyclovir, reference compound] | 240 | 1.42 | 1.42 mg/mL (g/L) | 0.0063 (0) mol/L | Water solubility, literature value [1]: 5.77 mM; Oral bioavailability [3]: 10-20%; Solubility in PBS (pH = 7.4) ([4]; determined using UV-Vis): 1.4^b mg ‘acyclovir’/mL; Solubility in PBS (pH = 7.4) [4, 6]: 1.5 mg ‘acyclovir’/mL; Solubility in SIF (pH = 6.8) [4, 7]: 2.22 mg ‘acyclovir’/mL
Nc1nc2c(ncn2COCCO)c(=O)[nH]1 [[Cho][Acy] (1)] [choline acyclovir] | 128 | 1019.42 | 1019.42 mg/mL (g/L) | 3.1045 (81) mol/L | 
Cl.Nc1nc2c(ncn2COCCO)c(=O)[nH]1 [[H2Acy]Cl (6), acyclovir hydrochloride] | 156 |  |  |  | Solubility in SGF (pH = 1.2) ([4]; pH 1.2): 292.8 mg ‘acyclovir’/mL; Solubility in SIF (pH = 6.8) ([4]; pH 6.8): 167.0 mg ‘acyclovir’/mL
Nc1nc2c(ncn2COCCO)c(=O)[nH]1 [[H2Acy][Doc] (7)] [acyclovir docusate] | 122 | 8.48 | 8.47 mg/mL (g/L) | 0.0131 (0) mol/L | Solubility in deionized water, average [5]: 8.46 mg/mL; Solubility in deionized water, single determination ([5]; room temperature, stirred 24 h (acyclovir overnight), individual replicate (1st, 2nd, 3rd)): 13.06 mM and 13.05 mM; Solubility in deionized water, average ([5]; room temperature, average of replicates, text of Examples): 13.06 mM
Nc1nc2c(ncn2COCCO)c(=O)[nH]1 [[N1,1,1,16][Acy] (3)] [trimethylhexadecylammonium acyclovir] | 150 | 252.18 | 252.18 mg/mL (g/L) | 0.4957 (4) mol/L | 
Nc1nc2c(ncn2COCCO)c(=O)[nH]1 [[N4,4,4,1][Acy] (2)] [tributylmethylammonium acyclovir] | 115 |  |  |  | 
Nc1nc2c(ncn2COCCO)c(=O)[nH]1 [[N4,4,4,4][Acy] (5)] [tetrabutylammonium acyclovir] | 132 |  |  |  | Solubility in PBS (pH = 7.4) [4, 6]: 1.0 mg ‘acyclovir’/mL; Solubility in SIF (pH = 6.8) [4, 7]: 144.0 mg ‘acyclovir’/mL
Nc1nc2c(ncn2COCCO)c(=O)[nH]1 [[P4,4,4,4][Acy] (4)] [tetrabutylphosphonium acyclovir] | 221 | 803.89 | 803.89 mg/mL (g/L) | 1.6622 (41) mol/L | T5% onset (onset for 5% decomposition from TGA) [2]: 221 °C
CC(C)[C@H](N)C(=O)OCCOCn1cnc2c(=O)[nH]c(N)nc21 [valacyclovir] |  |  |  |  | Oral bioavailability [3]: about 55%
acyclovir docusate [[H2Acy][Doc] (7)] |  |  |  |  | Stability of emulsion in water [5]: at least 48 h
